Results from ChEMBL document CHEMBL1128384, “Cardioselective antiischemic ATP-sensitive potassium channel openers. 2. Structure-activity studies on benzopyranylcyanoguanidines: modification of the benzopyran ring” (J Med Chem, 1995).

Key:
Assay type in all cases: functional
Rattus norvegicus [1] = species: Rattus norvegicus; experiment: Vasorelaxant potency was assessed by measurement of inhibition of methoxamine-contracted rat aorta
Rattus norvegicus [2] = species: Rattus norvegicus; experiment: In vitro anti-ischemic potency was determined by measurement of concentration necessary for increase in time to contracture by 25% in the globally ischemic rat hearts
[3] = Ratio of anti-ischemic potency and vasorelaxant potency in rat.
Rattus norvegicus [4] = species: Rattus norvegicus; experiment: Antiischemic potency was determined by increase in time to contracture at a concentration of 10 uM in the globally ischemic rat hearts

IC50 (Rattus norvegicus [1]) [µM] | Compound | EC25 (Rattus norvegicus [2]) [µM] | Ratio [3] | Increase (Rattus norvegicus [2]) [%] | Increase (Rattus norvegicus [4]) [%]
9.2 | CC1(C)Oc2ccc(C(F)(F)F)cc2[C@@H](/N=C(\NC#N)Nc2ccccc2)[C@@H]1O (relative stereo) | 10 | 0.5 | – | –
4 | CC(=O)c1ccc2c(c1)[C@@H](/N=C(\NC#N)Nc1ccccc1)[C@H](O)C(C)(C)O2 (relative stereo) | 8.5 | 2.1 | – | –
8.8 | CC1(C)Oc2cc(-c3ncco3)c(-c3ncco3)cc2[C@@H](/N=C(\NC#N)Nc2ccccc2)[C@@H]1O (relative stereo) | – | – | 6 | –
1.4 | CC1(C)Oc2cc(-c3ncco3)c(-c3ncco3)cc2[C@@H](NC(=O)Nc2ccccc2)[C@@H]1O | 13 | 9.3 | – | –
1.2 | CC(=O)c1ccc2c(c1)[C@@H](NC(=O)Nc1ccccc1)[C@H](O)C(C)(C)O2 | 4.5 | 3.8 | – | –
1.1 | CC1(C)Oc2ccc(C(F)(F)F)cc2[C@@H](NC(=O)Nc2ccccc2)[C@@H]1O | 2.7 | 2.5 | – | –
– | CC1(C)Nc2ccc(C#N)cc2[C@@H](/N=C(\NC#N)Nc2ccccc2)[C@@H]1O (relative stereo) | – | – | – | 0
194 | N#CN/C(=N\[C@@H]1c2cc(C#N)ccc2OC[C@H]1O)Nc1ccccc1 (relative stereo) | – | – | – | 0
0.18 | CC1(C)c2ccc([N+](=O)[O-])cc2[C@@H](NC(=O)Nc2ccccc2)[C@@H]1O | 6.5 | 36.1 | – | –
2.6 | CC1(C)C[C@H](/N=C(\NC#N)Nc2ccccc2)c2cc(C#N)ccc21 | 22 | 8.5 | – | –
14 | CC1(C)C[C@H](/N=C(\NC#N)Nc2ccccc2)c2cc(C#N)ccc2O1 | – | – | – | 0
59.6 | CC1(C)Oc2ccc(N)cc2[C@@H](/N=C(\NC#N)Nc2ccccc2)[C@@H]1O (relative stereo) | – | – | 0 | –
– | CC1(C)Oc2ccc(C#N)cc2[C@@H](N2CCCC2=O)[C@@H]1O [CROMAKALIM] | 8.9 | 278.1 | – | –
17 | CC1(C)C=C(NC(=O)Nc2ccccc2)c2cc(C#N)ccc2O1 | – | – | – | 7
1.8 | CC1(C)C[C@H](NC(=O)Nc2ccccc2)c2cc(C#N)ccc2O1 | 5.3 | 2.9 | – | –
6.9 | CC1(C)C=C(/N=C(\NC#N)Nc2ccccc2)c2cc(C#N)ccc2O1 | – | – | – | 0
– | N#Cc1ccc2c(c1)[C@@H](NC(=O)Nc1ccccc1)[C@H](O)CO2 | – | – | – | 6
– | CC1(C)Oc2ccc(C#N)cc2[C@@H](NC(=O)Nc2ccccc2)[C@@H]1O | 5.1 | – | – | –
4.4 | CC(=O)O[C@H]1[C@H](NC(=O)Nc2ccccc2)c2cc(C#N)ccc2OC1(C)C | – | – | – | 3
– | CC1(C)Oc2ccc(C#N)cc2[C@@H](/N=C(\NC#N)Nc2ccccc2)[C@H]1O (relative stereo) | – | – | – | 9
– | CC1(C)c2ccc([N+](=O)[O-])cc2[C@@H](/N=C(\NC#N)Nc2ccccc2)[C@@H]1O (relative stereo) | 10.7 | 18.8 | – | –
1.3 | CC1(C)C[C@H](NC(=O)Nc2ccccc2)c2cc(C#N)ccc21 | 9.4 | 7.2 | – | –
2.6 | CC(=O)O[C@H]1[C@H](/N=C(\NC#N)Nc2ccccc2)c2cc(C#N)ccc2OC1(C)C (relative stereo) | 6 | 2.3 | – | –
1.4 | CC1(C)Oc2ccc(C#N)cc2[C@@H](/N=C(\NC#N)Nc2ccccc2)[C@@H]1O (relative stereo) | 11 | 7.9 | – | –
6.2 | CC1(C)Oc2ccc(C#N)cc2[C@@H](NC(=O)Nc2ccccc2)[C@H]1O | 103 | 16.5 | – | –
